“And” between values parts separate entries of the source, which are not always exact repeats. Equal entries are not always repeated. Where a SMILES comes first, the peptide text is derived from it. The star is where a group is joined. Oxazole(5-CO) = O=C(c1cnco1)*; Crotonyl(E) = C/C=C/C(=O)*; 2Furoyl = O=C(c1ccco1)*; Butyryl = CCCC(=O)*
Biological target: T1, ENL YEATS domain (His-ENL) (Homo sapiens, UniProt Q03111)
T1 construct: (aa 1−148) was cloned in pET19b; made in house; host or cells: E. coli BL21(DE3pLysS)
T1 sequence (Q03111 1-148): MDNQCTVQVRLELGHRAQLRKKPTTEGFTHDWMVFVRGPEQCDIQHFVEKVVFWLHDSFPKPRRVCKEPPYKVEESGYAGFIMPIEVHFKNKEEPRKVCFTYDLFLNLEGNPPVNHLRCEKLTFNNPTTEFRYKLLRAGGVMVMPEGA
Assay: Biolayer interferometry (BLI) binding to ENL YEATS
Conditions: for Selectivity (ENL:AF9) from BLI KD values: ratio KD,AF9 / KD,ENL
Source text: To test the inhibition potency of the two selected peptides for the ENL YEATS domain, ENL-S1 and ENL-S2 were chemically synthesized through solid-phase peptide synthesis (SPPS) and evaluated by an AlphaScreen assay. In this assay, a biotinylated H3K27cr peptide and a 6xHis-tagged ENL YEATS domain (His-ENL YEATS) were immobilized on PerkinElmer streptavidin donor and nickel-chelating (Ni-NTA) acceptor beads, respectively. The use of a His-ENL YEATS instead of the original AviSUMO-ENL YEATS construct in the assay prevents potential false positive results derived from ligands which bind to the SUMO protein but not to the ENL YEATS domain. […] We then assessed the binding affinity of two ligands for the ENL YEATS domain using biolayer interferometry (BLI). Briefly, His-ENL was immobilized onto Ni-NTA functionalized biosensors to measure the binding kinetics of target peptides at different concentrations. […] As a small peptide directly selected from a phage display library, this level of high potency was unexpected. […] However, shorter-than-10-mer linear peptides with nanomolar binding potency have rarely been directly selected from phage display libraries. One example was S2P03, a 7-mer peptide that has a KD value as 49 ± 9 nM to bind to SIRT2.[10] This peptide contained BuK and was identified also from a BuK-containing phage display library using the active site-directed ligand selection technique. Taken together, the two examples confirmed that utilizing phage display libraries incorporated with a ncAA serving as a ligand for a protein target for active site-directed ligand selection is a successful method for identifying ultrahigh potency ligands for epigenetic proteins including both enzymes and readers. For ENL-S1 and ENL-S2, their determined kon and koff values were 6.23 ± 0.07 × 10^4 M^–1 s^–1, […] and […], 5.54 ± 0.02 × 10^–3 s^–1, respectively. Compared to ENL-S2, ENL-S1 has faster binding to the ENL YEATS domain and slower release from it, indicating its potential long-term action on the ENL YEATS inhibition. […]
Biolayer Interferometry to Validate ENL Ligands:
His-ENL, His-AF9 (aa 1-149, EpiCypher), His-GAS41 (aa 15-160, EpiCypher), and YEATS2-His (aa 200-345, EpiCypher) were reconstituted in water and diluted into assay buffer (20mM Tris, 300 mM NaCl, pH 7.9) for immobilization onto Octet Ni-NTA biosensors (Sartorius). Lyophilized peptides were dissolved in DMF and diluted to designated concentrations in assay buffer. Biolayer interferometry assays were performed in 96 well plates (GreinerBio-One, polypropylene, flat-bottom) using an Octet Red96 System (Sartorius). Wells were filled with 200 μL of assay buffer, blocking buffer (assay buffer + 0.1% BSA), protein solution, peptide solution, regeneration solution, and reload solution. For immobilization, His-tagged proteins were immobilized onto Ni-NTA sensors at 20 for 600 s. Sensors were then dipped into blocking buffer for 180 s, assay […] buffer for 300 s, peptide solution for 300 s, and back to assay buffer for 300 s. If multiple samples were tested, Ni-NTA sensors can be reconditioned in regeneration (10 mM glycine, pH 1.7) solution followed by reload solution (10 mM NiCl2) for 30 and 60 s, respectively. Measurements were carried out at 30 °C. Data were analyzed within the ForteBio Data Analysis software. Data were processed by double subtracting ligand only and protein only reference wells and aligning the data to the beginning of the association. Then, global kinetic fit was performed for all sensogram curves with a 1:1 model. Steady state KD values were reported.
AlphaScreen Assay with Biotinylated-ENL-S1:
The AlphaScreen assay was carried out in 384-well plates. Manual assay setup was performed in a 40 uL reaction buffer (50 mM HEPES pH 7.4, 100 mM NaCl, 0.1% bovine serum albumin, and 0.05% CHAPS). 10 µL of varying concentrations of His-ENL YEATS (0-300 nM) and 10 µL of […]

SMILES | Kd (BLI) | kon (BLI) | Selectivity (ENL:AF9) from BLI KD values
CCCC(=O)NCCCC[C@H](NC(=O)[C@H](Cc1ccc(O)cc1)NC(=O)[C@H](CS)NC(=O)[C@H](Cc1ccc(O)cc1)NC(=O)[C@@H](NC(=O)[C@H](CC(=O)O)NC(=O)[C@@H](N)Cc1ccc(O)cc1)C(C)C)C(N)=O [ENL-S1] (H-YDVYCYK(Butyryl)-NH2) | 0.0363 µM and 0.036 µM | 62300 ± 7e+06 M⁻¹ s⁻¹ | 5.6 fold
C/C=C/C(=O)NCCCC[C@H](NC(=O)[C@H](Cc1ccc(O)cc1)NC(=O)[C@H](CS)NC(=O)[C@H](Cc1ccc(O)cc1)NC(=O)[C@@H](NC(=O)[C@H](CC(=O)O)NC(=O)[C@@H](N)Cc1ccc(O)cc1)C(C)C)C(N)=O [ENL-S1c] (H-YDVYCYK(Crotonyl(E))-NH2) | 0.0162 µM | – | 9.1 fold
CC(C)[C@H](NC(=O)[C@H](CC(=O)O)NC(=O)[C@@H](N)Cc1ccc(O)cc1)C(=O)N[C@@H](Cc1ccc(O)cc1)C(=O)N[C@@H](CS)C(=O)N[C@@H](Cc1ccc(O)cc1)C(=O)N[C@@H](CCCCNC(=O)c1ccco1)C(N)=O [ENL-S1f] (H-YDVYCYK(2Furoyl)-NH2) | 0.0103 µM | – | 14.0 fold
CC(C)[C@H](NC(=O)[C@H](CC(=O)O)NC(=O)[C@@H](N)Cc1ccc(O)cc1)C(=O)N[C@@H](Cc1ccc(O)cc1)C(=O)N[C@@H](CS)C(=O)N[C@@H](Cc1ccc(O)cc1)C(=O)N[C@@H](CCCCNC(=O)c1cnco1)C(N)=O [ENL-S1o] (H-YDVYCYK(Oxazole(5-CO))-NH2) | 0.002 µM | – | 27.6 fold

Source: article PMC11046469, “Leveraging a Phage-Encoded Noncanonical Amino Acid: A Novel Pathway to Potent and Selective Epigenetic Reader Protein Inhibitors” (ACS Central Science, 2024)
